Measurements published in patent US7449484B2, “Compounds” (SmithKline Beecham Corporation, priority 2000, dated 2008).

How the values were obtained:
[1] = test system: murine airpouch granuloma; test: Murine Air Pouch Granuloma Model of angiogenesis in vivo; design: species or system mice; conditions: positive control
Excerpt: Measurement of Angiogenesis In Vivo—Murine Air Pouch Granuloma Model:
The murine airpouch granuloma model of chronic inflammation (Kimura et al., 1985, J. Pharmacobio-Dyn., 8:393-400; Colville-Nash et al., 1995, J. Pharm. and Exp. Ther., 274:1463-1472) whose disclosure is incorporated herein by reference in its entirety, is characterized by inflammatory cell influx, fibrous tissue proliferation and intense angiogenesis. […] In addition, angiogenesis can be accurately quantitated by a vascular casting method.
Day 1, mice are anesthetized using Aerrane (isoflurane) gas (5%) or other approved methods, after which 3 mls of air is injected into the dorsal subcutaneous tissue using a 27 g needle. Mice are allowed to recover. […]
When the granuloma is removed it is weighed and then dried for 3 days at 45° C. and reweighed. […] The carmine content is then determined against a carmine red standard curve (0.5 to 2 mg/ml) generated in extracted tissue from non carmine treated animals and read at 490 nm. Sample and standard values are determined typically using DeltaSoft Elisa analysis software (Biometallics Inc., Princeton, N.J.). […]
The effect of compounds on vascular density was typically measured for 6 days after induction of the granuloma. This time point has been determined to be at or near the peak of angiogenesis. […] Medroxyprogesterone had no effect on granuloma size as measured by dry weight.

melting point [°C] | Molecule | maximum reduction (vascular density) ([1]; measured 6 days after induction of the granuloma) [%] | effect on granuloma size as measured by dry weight ([1]; murine air pouch granuloma)
– | medroxyprogesterone | 50 | no effect
258 to 259 | CCOc1ccc2cc(-c3nc(C(C)(C)C)[nH]c3-c3ccncc3)ccc2c1 | – | –
